# Experiments:
# [1] = system: PRMT5 mRNA in Kelly cells; assay: PRMT5 mRNA in Kelly neuroblastoma cells; assay type: cell-based, human; settings: 5 µM, 24 h, vs DMSO
# Description: Human neuroblastoma ‘Kelly’ cells (genotype APOE3/APOE4) were plated in 96-well plates at 50K cells per well and were grown overnight in RPMI 1640 supplemented with 2 mM Glutamine, 10% FBS and 1% Pen-Strep. Cells were treated with 5 µM DDL-214, -218, or -219; or DMSO vehicle (n = 8 per compound). Twenty-four hours later, medium was removed, cells washed and lysed as described above for N2a-E4 cells.
# (§1) Total RNA was isolated from cells or brain tissue (Qiagen RNEasy kit). Total RNA (0.5–1.0 µg) mRNA was then converted to cDNA (SuperScript™ III First-Strand Synthesis SuperMix kit; Thermo Fisher), and gene mRNA levels were measured using a gene-specific qRT-PCR Taqman assays (Thermo Fisher). Gene mRNA levels were normalized to GAPDH mRNA levels measured either in the same cDNA sample or in the same qPCR reaction using multiplexing of gene-of-interest/VIC and GAPDH/FAM, normalized by the delta-delta-Ct method.
# [2] = system: ApoE4-TR:5xFAD mice; assay: Barnes maze testing in ApoE4-TR:5xFAD mice; assay type: in vivo; settings: 20 mg/Kg BID oral, 56 days, vs vehicle
# Description: (§2) The active (-) enantiomer, DDL-218, underwent efficacy testing in ApoE4-TR:5xFAD mice[27] that were 6-7.5 months old at the start of treatment. ApoE4-TR:5xFAD male and female mice received either 20 mg/Kg DDL-218 BID (~ 8- to10-hour interval; total daily dose of 40 mkd) on weekdays and a single 40 mg/Kg dose on weekends (n = 12) or vehicle-only (n = 11); 8 C57BL/6 mice received vehicle-only as behavioral controls. Dosing was by the oral route and by oral feeding using a pipette as previously described, not gavage, as it is safer for repeated oral dosing than gavage. The dose of 20 mg/kg BID (40 mkd) was selected based on findings from PK analysis and was the highest feasible in the formulation used for oral feeding (compound is first solubilized in water, then mixed strawberry syrup diluted in water, for a final vehicle that is 25% syrup and 75% water). The final concentration of DDL-218 was chosen to deliver 20 mg/Kg in a volume of 10–20 µL (adjusted to the weight of each mouse). […]
# For the probe test of memory, 48 h after the last training, the escape hole is closed and the escape box removed. […] Analysis of latency over the course of training trials was performed using ANY-Maze Software (Wood Dale, IL) and probe data was calculated manually as the software excludes mice that […] the escape hole within 90 s; in manual scoring, they are assigned a 90 s latency.
# [3] = system: NFYb mRNA; assay: Hippocampal NFYb mRNA in ApoE4-TR:5xFAD mice; assay type: in vivo; settings: 20 mg/Kg BID, 56 days, vs vehicle
# Description: as §2, with “water).” for “water). The final concentration of DDL-218 was chosen to deliver 20 mg/Kg in a volume of 10–20 µL (adjusted to the weight of each mouse).”
# as §1
# [4] = Observable adverse effects in 56-day oral treatment of AD model mice; assay type: in vivo; settings: 56-day oral treatment of ApoE4-expressing AD model mice
# Description: The active (-) enantiomer, DDL-218, underwent efficacy testing in ApoE4-TR:5xFAD mice[27] that were 6-7.5 months old at the start of treatment. ApoE4-TR:5xFAD male and female mice received either 20 mg/Kg DDL-218 BID (~ 8- to10-hour interval; total daily dose of 40 mkd) on weekdays and a single 40 mg/Kg dose on weekends (n = 12) or vehicle-only (n = 11); 8 C57BL/6 mice received vehicle-only as behavioral controls. Dosing was by the oral route and by oral feeding using a pipette as previously described, not gavage, as it is safer for repeated oral dosing than gavage. The dose of 20 mg/kg BID (40 mkd) was selected based on findings from PK analysis and was the highest feasible in the formulation used for oral feeding (compound is first solubilized in water, then mixed strawberry syrup diluted in water, for a final vehicle that is 25% syrup and 75% water). The final concentration of DDL-218 was chosen to deliver 20 mg/Kg in a volume of 10–20 µL (adjusted to the weight of each mouse). Mice were treated for 56 days (8 weeks); in week 7, mice underwent Barnes maze testing[29] as described below.
# [5] = Brain tissue binding (dialysis of brain homogenate); assay type: in vitro ADME; settings: pH 7.4, brain homogenate 20 mg/mL, 2 µM compound, 37 °C, read-out: Brain Tissue Binding [fu,bound (%)]
# Description: Figure S3B. SirT1 protein levels in N2a-E4 cells after A03 and DDL-214 treatment. Compound treatment was done at 5 and 50 µM. SirT1 levels were measured by AlphaLISA followed and normalized to protein […]
# DDL-218 Physiochemical Properties
# Brain Tissue Binding [fu,bound (%)]
# Brain tissue was homogenized in PBS (pH 7.4) (1: 3 weight(mg)/volume(µL)) and the protein concentration of was determined using the Micro BCA™ Protein Assay Kit (Thermo Fisher Scientific, Cat#23235). Brain homogenate was diluted to 20 mg/mL in PBS (pH 7.4) and added to Slide-A-Lyzer™ MINI Dialysis Devices, 10K MWCO dialysis cups (Thermo Fisher Scientific, Cat#PI88401) in 48-well plate containing PBS (500 µL; pH 7.4). 1 µL of […] compound was added to the brain homogenate (Final Concentration: 2 µM compound, 0.5% DMSO) and incubated on a rocker for 4.5 hours at 37 °C. 50 µL of brain homogenate (within the dialysis cup) and PBS (within the 48-well plate) were transferred to new microcentrifuge tubes containing 200 µL of quenching reagent (100% Acetonitrile) containing internal standard. […]
# The % of the unbound drug (fu,bound) was calculated using the following equation: fu,bound = [normalized peak area in buffer side / normalized peak area in brain side] x 100 Liver Microsome Stability [t1/2 (min)] […]
smiles,measurement,setting,value
CC(N)C(=O)OC(C)(C)Cc1ccncc1 (centres unmarked) [DDL-218],PRMT5 expression (mRNA),[1],significantly increases PRMT5 expression
same,"latency to enter the escape hole, 48-hour post-training probe",[2],decrease in latency
same,hippocampal NFYb mRNA,[3],significantly increased
same,observable adverse effects,[4],not associated with any observable adverse effects
same,"fraction unbound at 4.5 h, 2 µM",[5],0.43

# Source: publication PMC12019328, “Discovery of an ApoE4-targeted small-molecule SirT1 enhancer for the treatment of Alzheimer’s disease” (Scientific Reports, 2025)
